Three compounds from patent US20210137997A1 (priority 2016, published 2021) can be followed below.

Assay [1] deals with cbiL (vitamin B12 biosynthesis gene) in HL025PA1. In words: cbiL gene expression by qRT-PCR, HL025PA1. It is filed as cell-based, Propionibacterium acnes. The note with it: 10 μg/mL vitamin B12. The protocol: (§1) RNA extraction and cDNA synthesis. For cbiL and deoR gene expression analysis, cells were lysed with bead beating. Total RNA was extracted using the standard phenol-chloroform method and purified using RNeasy kit (Qiagen). DNA was removed using the Turbo DNA-free kit (Life Technologies). RNA quality was assessed using gel electrophoresis. Single-stranded complementary DNA (cDNA) was synthesized using SuperScript III First-Strand Synthesis SuperMix (Life Technologies).
(§2) Analysis of cbiL gene expression. qRT-PCR was performed using the LightCycler 480 High Resolution Melting Master Mix (Roche) on a LightCycler 480 (Roche) with the following primers: cbiL-forward, 5′-[…]-3′ (SEQ ID NO: 1), and cbiL-reverse, 5′-[…]-3′ (SEQ ID NO: 2). The following qRT-PCR protocol was used: initial denaturation at 95° C. for 5 min, followed by 50 cycles of 95° C. for 10 sec, 62° C. for 30 sec, and 72° C. for 30 sec. The fold change in cbiL gene expression between cultures with vitamin B12 supplementation and cultures without supplementation was calculated. The gene expression level of cbiL in each sample was normalized against the 16S rRNA transcript level. Melting curve analysis was performed using the Light Cycler 480 software Version 1.5 (Roche) to verify the specificity of the amplified products based on their melting temperatures. All reactions were run in triplicate.
In general terms: Real-time PCR tracks product formation cycle by cycle.

Assay [2] has as its system cbiL (vitamin B12 biosynthesis gene) in health-associated type II strains. In words: cbiL gene expression by qRT-PCR, type II strains. The format is cell-based, Propionibacterium acnes. The note with it: 10 μg/mL vitamin B12 vs without, normalized to 16S rRNA. How it is done: as §1, §2
A further assay concerns P. acnes strains. It is filed as cell-based, Propionibacterium acnes.
In assay [3] the test system is health-associated type II P. acnes strains. The assay can be described thus: Extracellular porphyrin production in culture, health-associated type II strains. It is filed as cell-based, Propionibacterium acnes. How it is done:
(§3) P. acnes strains and cultures.
(§4) Extraction, identification, and quantification of extracellular porphyrins. For each strain, porphyrins were extracted using the method described by Kang et al. (Sci Transl Med 7:293ra103 (2015)). Briefly, 500 μL of bacterial culture was extracted in ethyl acetate and acetic acid (4:1, v/v), and solubilized in 1.5M HCl. The absorbance at 405 nm was measured from 200 μL of the soluble phase using a Tecan Genios Spectrophotometer M1000 (Tecan US Inc, Morrisville, N.C.). The standard curve to convert absorbance to concentration was generated using coproporphyrin III standards of known concentration (C654-3, Frontier Sci). Porphyrin levels were measured in P. acnes strain KPA171202 using the quantification method described by Wollenberg et al. (MBio 5:e01286-01214 (2014)). […] Porphyrins were extracted from cultures at stationary phase. […] Bacterial culture density was measured at OD595 for normalization of porphyrin levels. For mass spectrometry experiments, extracted porphyrins were directly injected onto an Agilent 6460 Triple Quad LC/MS system and each strain's m/z in the negative ion mode was identified.
(§5) Statistical analysis for porphyrin production comparisons. The average amount of porphyrins produced by each strain under each culture condition was calculated based on the data from at least three independent experiments, with at least three replicates for each. The porphyrin levels between strains, groups (acne-associated vs. health-associated), and culture conditions (with treatment vs. without treatment) were estimated in a linear mixed effect model, with random intercepts by trial to account for trial effects. P-values for specific comparisons among groups were corrected using Tukey's method. All statistical analysis was performed using R software (version 3.1.3).
(§6) To investigate whether different P. acnes strains produce the same porphyrin species, the types of porphyrins secreted by multiple P. acnes strains where characterized using mass spectrometry. Four acne-associated type IA-2 strains, HL053PA1 (RT4), HL045PA1 (RT4), HL043PA1 (RT5), and HL043PA2 (RT5), and three health-associated type II strains, HL001PA1 (RT2), HL103PA1 (RT2), and HL042PA3 (RT6), were examined (Table 1). No difference in the porphyrin species produced by these P. acnes strains was observed. Coproporphyrin III was the dominant porphyrin isomer produced by all strains ([M+H]^+=655.3). Minimal amounts of coproporphyrin I were also detected. Porphyrin levels are measured with the following method. Bacterial cells are collected, and porphyrins are extracted. The concentration of porphyrins is measured spectrophotometrically and normalized to the optical density (also measured spectrophotometrically). Porphyrin levels are therefore measured per bacterial unit.

Assay [4] concerns acne-associated type IA-2 P. acnes strains. It is filed as cell-based, Propionibacterium acnes. How it is done:
as §3, §4, §5, §6

For assay [5], the system named is cbiL (vitamin B12 biosynthesis gene) in acne-associated type IA-2 strains. The assay can be described thus: cbiL gene expression by qRT-PCR, type IA-2 strains. It is filed as cell-based, Propionibacterium acnes. The note with it: 10 μg/mL vitamin B12 vs without, normalized to 16S rRNA. The protocol:
as §1, §2

A further assay deals with P. acnes strain HL025PA1. The assay can be described thus: Extracellular porphyrin production in culture, type I strain with deoR. The note with it: 10 μg/mL vitamin B12. The format is cell-based, Propionibacterium acnes. The protocol: as §3
as §4, with “For mass spectrometry experiments, extracted porphyrins were directly injected onto an Agilent 6460 Triple Quad LC/MS system and each strain's m/z in the negative ion mode was identified.” left out
Statistical analysis for porphyrin production comparisons. The average amount of porphyrins produced by each strain under each culture condition was calculated based on the data from at least three independent experiments, with at least three replicates for each. […]

The subject of another assay is P. acnes. The note with it: 0.1 mg/mL LA (range 0.1 to 1.0 mg/mL assessed).

Read-outs that look alike come from different tables or passages of the source.

Take vitamin B12: in assay [1], the “effect on vitamin B12 biosynthesis gene expression” value was “transcriptional repression”. The results for the “average fold change of cbiL gene expression” value in assay [2] and in assay [5] were 0.24 fold and 0.74 fold, respectively. Also, the “response of porphyrin production to vitamin B12 supplementation” value in the assay on P. acnes strains (type I strains, FIG. 12) was “increased porphyrin production”; in the assay on P. acnes strains (type II and type III strains, data not shown), “not observed”. Moreover, the “average porphyrin level with vitamin B12 supplementation” value in assay [3] (10 μg/mL vitamin B12, 1.1 μM without, P≥0.77) is 1.1 µM; in assay [4] (10 μg/mL vitamin B12, increasing from 6.5 μM without), 9.2 µM. Besides, the “further enhancement of porphyrin production compared to substrate only” value in assay [3] (10 μg/mL vitamin B12 in combination with 0.1 mg/mL 5-ALA, P≥0.94) was “not in health-associated type II strains”. In addition, in assay [3] (0.1 mg/mL LA with 10 μg/mL vitamin B12), the “counteraction by vitamin B12 of the inhibition of porphyrin biosynthesis by LA” value is reported as “not in health-associated type II strains”. Also, the “effect of vitamin B12 on porphyrin production level” value in assay [3] (strains HL110PA3, HL106PA1, HL050PA2, 10 μg/mL) was “not significantly affected”. The “fold increase in porphyrin production compared to substrate only” value in assay [4] (10 μg/mL vitamin B12 in combination with 0.1 mg/mL 5-ALA) is given as 2.7 fold. Moreover, in the assay with P. acnes strain HL025PA1, the “effect of vitamin B12 on porphyrin production” value was “unaffected”.

Take `NCC(=O)CCC(=O)O` [5-ALA, 5-aminolevulinic acid]: the “average fold increase in porphyrin production” value was determined as 3.4 fold in assay [3] (0.1 mg/mL 5-ALA only vs untreated controls, P≤0.06 except HL001PA1) and 2.2 fold in assay [4] (0.1 mg/mL 5-ALA only vs untreated controls, P<0.0001).

In the case of `CC(=O)CCC(=O)O` [LA, levulinic acid], in the assay on P. acnes strains, the “average reduction of porphyrin production compared to untreated cultures” value is on record as 30%. Besides, the “effect on bacterial growth” value with P. acnes is recorded as “did not significantly affect the bacterial growth”. Besides, the “reduction of porphyrins by LA in combination with vitamin B12” value in assay [4] is “no significant reduction of porphyrins”.
